# Measured values reported in US6365616B1, “Methimazole derivatives and tautomeric cyclic thiones to treat autoimmune diseases” (Sentron Medical, Inc., priority 1998, dated 2002).
# Marks after values point to notes of the source that are not given here.
# Assays:
# (NZB x NZW)F1 mice = experiment: Prevention of proteinuria (SLE model) in female (NZB x NZW)F1 mice; type: in vivo; settings: for Animals with proteinuria, 30-500 (mg/dl proteinuria) / Animals with proteinuria, >500 (mg/dl proteinuria) / Animals with proteinuria, Neg-Trace (mg/dl proteinuria) / development of proteinuria at 7.5 mos: oral; for Animals with proteinuria, 30-500 (mg/dl proteinuria) / Animals with proteinuria, >500 (mg/dl proteinuria) / Animals with proteinuria, Neg-Trace (mg/dl proteinuria): 0.05% MMI, 0.01% 5-phenylmethimazole, 0.05% 2-mercaptoimidazole; for significant numbers of immune complexes in kidneys (FIG. 15): immunohistology of frozen kidney sections; for development of proteinuria at 7.5 mos: compound 10 at a fifth the MMI concentration
# Excerpt: Female (NZB x NZW)F1 mice were obtained from Jackson Labs. Animals were followed with AMES 2855 Uristix (Miles) to semiquantitatively measure proteinuria. Proteinuria was taken as a measure of development of SLE and MMI suppression of proteinuria as suppression of renal complexes in kidney (Mozes et al., J. Clin Immunology 18:106-113 (1998)). At 7-8 mos. mice develop proteinuria reflecting renal disease. Treatment was from 2 mos to 6 mos of age. Treatment was oral. Each group had 8 animals to start.
# In this experiment, immunohistology was performed in a blind fashion on 5 μm thick frozen kidney sections which were fixed and stained with FITC-conjugated goat antibodies to immunoglobulin G (γ chain specific) as described (Mozes, et al., Science 261:91-93 (1993); Mozes, E., et al., ibid (1998)). Compound 10, a tautomeric cyclic thione, and MMI are effective in preventing SLE in this experimental model.
# Death of some animals in this experiment occurred for technical reasons, i.e. flooding of cages, handling, etc., in the last 2 mos. However, losses in the control group were similar to experimental groups. MMI, 2-mercaptoimidazole, and Compound 10 treatments were administered during the period between 2 and 6.25 months of age.
# [1] = system: silencer complex with Fragment 140 (upstream silencer/enhancer) of the MHC Class I PD1 5′-flanking region; experiment: Gel shift (EMSA) with upstream 140 class I probe, extracts from treated FRTL-5 cells; type: cell-based, rat; settings: 5H cells treated 48 hours
# Method: FRTL-5 rat thyroid cells (Kohn, L. D., et al., U.S. Pat. No. 4,609,622 (1986); Ambesi-Impiombato E S., U.S. Pat. No. 4,608,341 (1986)) are grown as described below. […] Their doubling time was approximately 36±6 hours; and, after 6 days in medium with no TSH (5H) and 5.0% serum, […] TSH elevated iodide uptake 8-10 fold and thymidine incorporation>10 fold. Cells were diploid, between their 5th and 25th passage in most experiments, and were routinely grown in Coon's modified F12 medium supplemented with 5 % calf serum, 1 mmol/L nonessential amino acids (GIBCO) and a mixture of 6 hormones (6H medium): TSH (1×10^−10 M), insulin (10 μg/ml), hydrocortisone 0.4 ng/ml, human transferrin (5 μg/ml), somatostatin ([…]) and glycyl-L-histidyl-L-lysine acetate (10 ng/ml) (Kohn, L. D. et al., U.S. Pat. No. 4,609,622 (1986); Ambesi-Impiombato, E. S., U.S. Pat. No. 4,608,341 (1986)). They were passaged every 7-10 days and provided fresh media every 2 or 3 days. In individual experiments, cells were grown to near confluency in 6H medium then, in some experiments, were shifted to medium with no TSH (5H), to medium with neither TSH and or insulin (4H), or to medium with no TSH, no insulin and no hydrocortisone (3H) plus either 5% or 0.2% serum for 4-7 days before use.
# Cells were grown in 6H medium with 5 % calf serum for 6-7 days to 70-80% confluence, then shifted to 5H medium with 5 % calf serum for 5 days. TSH (1×10^−10 M), gamma-interferon (100 U/ml), MMI (5 mM), and different concentrations of MMI derivatives or tautomeric cyclic thiones (0.0001 to 10 mM) were added as appropriate for […]. Cells were then harvested and extracts were made by a modification of a method of Dignam, J., et al. Methods in Enzymology, 101:582-598 (1983). In brief, cells were harvested by scraping after being washed twice with cold phosphate-buffer saline (PBS). Subsequently they were pelleted, washed in cold PBS and then pelleted again. The pellet was resuspended in Dignam buffer C (20 mM Hepes buffer at pH 7.9, 1.5 mM MgCl2, 0.42 M NaCl, 25% glycerol, 0.5 mM dithiotreitol (DTT), 0.5 mM phenylmethylsulfonylfluoride (PMSF), 1 […] pepstatin). The final NaCl concentration was adjusted on the basis of cell pellet volume to 0.42 M and cells were lysed by repeated cycles of freezing and thawing. Extracts were then centrifuged at 10,000×g at 4° C. for 20 min. The supernatant was recovered, aliquoted and stored at −70° C.
# Binding reactions were performed in a volume of 20 μl for 30 min at room temperature. The typical reaction mixture contained 1.5 fmol of ^32P DNA, 3 μg of cell extracts, 1 to 3 μg of poly (dI-dC) in 10 mM Tris-Cl (pH 7.9), 1 mM MgCl2, 1 mM DTT, 1 mM ethylenediamine tetra acetic acid (EDTA), and 5 % glycerol. After incubation, reaction mixtures were subjected to electrophoresis in 4% polyacrylamide gels for 90-120 min at 160 V in 0.5× TBE (Sambrook, J., et al., Molecular Cloning: A Laboratory Manual, 2nd ed. Cold Spring Harbor Press, NY, 2: 11.23-11.44 (1989)), then dried and autoradiographed. Probes were labeled with [α32P] deoxy CTP by Klenow enzyme (In Vitro labeling kit, Amersham) following the manufacturer's instructions, or by [γ^32P] ATP using T4 polynucleotide kinase. Labeled probes were then purified either through G-50 columns (5 prime→3 Prime) or on an 8% polyacrylamide gel.
# The effect of the addition of 5 mM MMI to cells for 48 hours prior to extract preparation from cells maintained in SH medium is shown in lane 1 of FIG. 2. The effect of the addition of 1 mM concentration of representative MMI derivatives to cells maintained in 5H medium for 48 hours prior to extract preparation is shown in lanes 3 to 8 in FIG. 2. The structures and names of the representative numbered compounds are in Table 1. The MMI or its derivatives decrease the silencer complex. The decrease can be quantitated by densitometry of autoradiograms or phosphoimaging on a Bas 1500 imager (for example). […]
Compound,"Animals with proteinuria, 30-500 (mg/dl proteinuria) ((NZB x NZW)F1 mice; 6 mos)","Animals with proteinuria, >500 (mg/dl proteinuria) ((NZB x NZW)F1 mice; 6 mos)","Animals with proteinuria, Neg-Trace (mg/dl proteinuria) ((NZB x NZW)F1 mice; 6 mos)","Animals with proteinuria, 30-500 (mg/dl proteinuria) ((NZB x NZW)F1 mice; 7.5 mos)","Animals with proteinuria, >500 (mg/dl proteinuria) ((NZB x NZW)F1 mice; 7.5 mos)","Animals with proteinuria, Neg-Trace (mg/dl proteinuria) ((NZB x NZW)F1 mice; 7.5 mos)",significant numbers of immune complexes in kidneys (FIG. 15) ((NZB x NZW)F1 mice),development of proteinuria at 7.5 mos ((NZB x NZW)F1 mice),% inhibition of control silencer complex formation ([1]; 10 μM),% inhibition of control silencer complex formation ([1]; 100 μM),% inhibition of control silencer complex formation ([1]; 1 mM),% inhibition of control silencer complex formation ([1]; 5 mM),"toxicity in vivo ((NZB x NZW)F1 mice; one-fifth the MMI concentration, NZB and NOD mouse experiments)"
"Cn1ccnc1S [Compound 1, 1-Methylimidazole-2-thiol]",0 of 8,0 of 8,8 of 8,2 of 5,0 of 5,3 of 5,not true,significantly prevented proteinuria,0%,0%,20 ± 15%,75 ± 12%,
"Cc1ncc([N+](=O)[O-])n1CCO [Compound 2, 2-Methyl-5-nitro-1-imidazole ethanol]",,,,,,,,,0%,0%,45 ± 19%,86 ± 15%,
"Sc1ncc[nH]1 [Compound 3, 2-Mercaptoimidazole]",4 of 7,0 of 7,3 of 7,3 of 6,3 of 6,0 of 6,,developed significant proteinuria,0%,0%,0%,0%,
"Sc1nc2ccccc2[nH]1 [Compound 4, 2-Mercaptobenzimidazole]",,,,,,,,,0%,5%,75 ± 10%,Insol,
"O=[N+]([O-])c1ccc2[nH]c(S)nc2c1 [Compound 5, 2-Mercapto-5-nitrobenzimidazole]",,,,,,,,,0%,0%,0%,Insol,
"Cc1ccc2[nH]c(S)nc2c1 [Compound 6, 2-Mercapto-5-methylbenzimidazole]",,,,,,,,,0%,0%,20 ± 18%,Insol,
"CSc1nccn1C [Compound 7, S-Methylmethimazole]",,,,,,,,,0%,10 ± 13%,50 ± 9%,,
"Cn1ccn(C)c1=S [Compound 8, N-Methylmethimazole]",,,,,,,,,0%,18 ± 18%,70 ± 14%,,
"Cc1cnc(S)n1C [Compound 9, 5-Methylmethimazole]",,,,,,,,,0%,0%,15 ± 15%,30 ± 20%,
"Cn1c(-c2ccccc2)cnc1S [Compound 10, 5-Phenylmethimazole]",0 of 8,0 of 8,8 of 8,1 of 6,0 of 6,5 of 6*,not true,significantly prevented proteinuria,25%,60 ± 10%,85 ± 15%,,nontoxic
